In ChEMBL document CHEMBL1201862, “PubChem BioAssay data set” (2004):
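Five concentrations, 48 hours, 96-well plates. GI50: concentration for 50% inhibition of growth.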 Active and inactive are the calls of the source. Cut-off read from the data, not from the text of the source: active = GI50 up to about 1.1 µM and inactive = higher.

Experiments:
Experiment in all cases: NCI anticancer screen, dose series, 48 h
NCI-H23 = system: NCI-H23
UO-31 = system: UO-31
NCI-H226 = system: NCI-H226
Malme-3M = system: Malme-3M
SK-OV-3 = system: SK-OV-3
SR = system: SR
UACC-257 = system: UACC-257
OVCAR-8 = system: OVCAR-8
LOX IMVI = system: LOX IMVI
NCI-H460 = system: NCI-H460
SK-MEL-5 = system: SK-MEL-5
KM12 = system: KM12
OVCAR-3 = system: OVCAR-3
SNB-75 = system: SNB-75
HCT-116 = system: HCT-116
U-251 = system: U-251
SF-539 = system: SF-539
A549 = system: A549
SF-295 = system: SF-295
EKVX = system: EKVX

| SMILES | GI50 (NCI-H23) | GI50 (UO-31) | GI50 (NCI-H226) | GI50 (Malme-3M) | GI50 (SK-OV-3) | GI50 (SR) | GI50 (UACC-257) | GI50 (OVCAR-8) | GI50 (LOX IMVI) | GI50 (NCI-H460) | GI50 (SK-MEL-5) | GI50 (KM12) | GI50 (OVCAR-3) | GI50 (SNB-75) | GI50 (HCT-116) | GI50 (U-251) | GI50 (SF-539) | GI50 (A549) | GI50 (SF-295) | GI50 (EKVX) |
| --- | --- | --- | --- | --- | --- | --- | --- | --- | --- | --- | --- | --- | --- | --- | --- | --- | --- | --- | --- | --- |
| CNc1cc2c(c3ccccc13)C(CCl)CN2C(=O)c1cc2cc(OC)c(OC)c(OC)c2[nH]1 (stereo not given) | 0.000465 µM (active) | 0.00223 µM (active) | 0.0138 µM (active) | < 0.01 µM (active) | 0.0116 µM (active) | 0.000275 µM (active) | 0.00541 µM (active) | 0.00123 µM (active) | 0.00106 µM (active) | 0.000212 µM (active) | 0.00146 µM (active) | 0.0038 µM (active) | 0.0226 µM (active) | 0.00252 µM (active) | 0.00106 µM (active) | 0.00191 µM (active) | 0.00196 µM (active) | 0.00153 µM (active) | 0.00155 µM (active) | 0.00381 µM (active) |
| O=c1[nH]c2ccc([N+](=O)[O-])cc2nc1/C(=N/Nc1ccccc1)C(O)c1ccco1 (stereo not given) | 65.3 µM (inactive) | 44.2 µM (inactive) | > 100 µM (inactive) | 63.8 µM (inactive) | > 100 µM (inactive) | 66.2 µM (inactive) | > 100 µM (inactive) | > 100 µM (inactive) | > 100 µM (inactive) | > 100 µM (inactive) | 25.8 µM (inactive) | 33.6 µM (inactive) | > 100 µM (inactive) | 36.3 µM (inactive) | 73.1 µM (inactive) | > 100 µM (inactive) | > 100 µM (inactive) | 69.3 µM (inactive) | 83.4 µM (inactive) | > 100 µM (inactive) |
